Measurements reported in patent publication US8314131B2, “Triazole fused heteroaryl compounds and methods of use thereof” (Amgen Inc., priority 2007, dated 2012).

What was measured:
IL-1 = assay: LPS induced IL-1 cell assay (LPS-induced release of IL-1β from monocytes); assay type: cell-based; conditions: Homo sapiens, Monocyte; LPS-activated monocytes
Protocol: Lipopolysaccharide-Activated Monocyte TNF Production Assay
Test compounds were evaluated in vitro for the ability to inhibit the production of TNF by monocytes activated with bacterial lipopolysaccharide (LPS). Fresh residual source leukocytes (a byproduct of plateletpheresis) were obtained from a local blood bank, and peripheral blood mononuclear cells (PBMCs) were isolated by density gradient centrifugation on Ficol-Paque Plus (Pharmacia). PBMCs were suspended at 2×10^6/mL in DMEM supplemented to contain 2% FCS, 10 mM, 0.3 mg/mL […], 100 U/mL penicillin G and […] streptomycin sulfate (complete media). Cells were plated into Falcon flat bottom, 96 well culture plates (200 μL/well) and cultured overnight at 37° C. and 6% CO2. Non-adherent cells were removed by washing with 200 μl/well of fresh medium. Wells containing adherent cells (˜70% monocytes) were replenished with 100 μL of fresh medium.
Preparation of Test Compound Stock Solutions
Test compounds were dissolved in […]. Compound stock solutions were prepared to an initial concentration of […]. Stocks were diluted initially to 20-200 μM in complete media. Nine two-fold serial dilutions of each compound were then prepared in complete medium.
Treatment of Cells with Test Compounds and Activation of TNF Production with Lipopolysaccharide
One hundred microliters of each test compound dilution were added to microtiter wells containing adherent monocytes and 100 μL complete medium. Monocytes were cultured with test compounds for 60 min at which time 25 μL of complete medium containing 30 ng/mL lipopolysaccharide from E. coli K532 were added to each well. Cells were cultured an additional 4 hrs. Culture supernatants were then removed and TNF presence in the supernatants was quantified using an ELISA.
Compounds of the invention can also be shown to inhibit LPS-induced release of IL-1β, IL-6 and/or IL-8 from monocytes by measuring concentrations of IL-1β, IL-6 and/or IL-8 by methods well known to those skilled in the art. […] Thus, the compounds of the invention may lower elevated levels of TNF-α, IL-1, IL-6, and IL-8 levels. Reducing elevated levels of these inflammatory cytokines to basal levels or below is favorable in controlling, slowing progression, and alleviating many disease states.

p38α = p38α (Homo sapiens, UniProt Q16539); assay: p38 in-vitro HTRF enzyme assay; assay type: biochemical; conditions: recombinant human enzyme, read-out: p38a IC50
Sequence of p38α (Q16539 whole entry): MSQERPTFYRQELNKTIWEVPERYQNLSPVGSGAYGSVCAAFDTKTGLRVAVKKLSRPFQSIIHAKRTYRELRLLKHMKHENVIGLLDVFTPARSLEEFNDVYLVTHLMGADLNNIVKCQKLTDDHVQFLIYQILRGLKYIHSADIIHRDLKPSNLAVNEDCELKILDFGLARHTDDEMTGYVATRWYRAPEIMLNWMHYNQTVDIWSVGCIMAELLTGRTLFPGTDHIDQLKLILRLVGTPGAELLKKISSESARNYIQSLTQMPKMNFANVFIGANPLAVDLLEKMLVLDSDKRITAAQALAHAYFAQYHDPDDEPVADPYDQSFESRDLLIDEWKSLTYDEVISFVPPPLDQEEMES
Protocol: p38 In-Vitro HTRF Enzyme Assay
The compounds of the invention can be tested for their respective affinities for the p38 protein using a conventional p38 in-vitro enzyme activity assay. For example, a P38-alpha HTRF assay may be used to measure the protein's in-vitro phosphorylation activity, and the data analyzed using time resolved fluorimetry techniques (FRET). A p38 HTRF assay is as follows. The kinase reaction buffer for p38α, p38β, p38δ and p38γ HTRF assays consists of 50 mM Tris-pH 7.5, 5 mM MgCl2, 0.1 mg/mL BSA, 100 μM Na3VO4 and 0.5 mM DTT. The HTRF detection buffer contains 100 mM HEPES-pH 7.5, 100 mM NaCl, 0.1% BSA, 0.05% Tween-20, and 10 mM EDTA. Each compound was dissolved in 100% DMSO and serially diluted (3 fold, 10 point) in a polypropylene 96-well microtiter plate (drug plate). The final starting concentration of the compound in the p38α […]and p38β enzymatic assays was about 1 μM. The final starting concentration of each compound in the p38δ and p38γ enzymatic assays was about 10 μM. The p38α, p38β, p38δ and p38γ kinase reactions were carried out in a polypropylene 96-well black round bottom assay plate in total volume of 30 μL kinase reaction buffer. Appropriate concentration of purified and activated enzyme (recombinant human) was mixed with indicated concentration of ATP and 100 nM GST-ATF2-Avitag, in the presence or absence (HI control) of each compound. In the absence of enzyme, the background was measured as LO control. HI controls and LO controls contained only DMSO. The reaction was allowed to incubate for 1 hour at RT. […] After 60 minutes incubation at room temperature, the assay plate was read in a Discovery Plate Reader. The wells were excited with coherent 320 nm light and the ratio of delayed ([…] post excitation) emissions at […] (native europium fluorescence) and 665 nm (europium fluorescence transferred to allophycocyanin—an index of substrate phosphorylation) was determined (Park et al, 1999). The resulting data was analyzed by taking the proportion of substrate phosphorylated in the kinase reaction in the presence of each individual compound and comparing it with that phosphorylated in the presence of DMSO vehicle alone (HI control). The data was calculated using the formula: % control (POC)=(compound−average LO)/(average HI−average LO)*100. Data (consisting of POC and inhibitor concentration in μM) was fitted to a 4-parameter equation (y=A+((B−A)/(1+((x/C)^D))), where A is the minimum y (POC) value, B is the maximum y (POC), C is the x (compound concentration) at the point of inflection and D is the slope factor, using a Levenburg-Marquardt non-linear regression algorithm. The inhibition constant (Ki) of the inhibitor was estimated from the IC50 (compound concentration at the point of inflection C) using the Cheng-Prussof equation: Ki=IC50/(1+S/Km), where S is the ATP substrate concentration, and Km is the Michaelis constant for ATP as determined experimentally. All results were expressed as the mean±the standard error of the mean. Data acquisition and non-linear regression algorithms were performed using Activity Base v5.2 and XLfit software v4.1 respectively. Additional assay information may be obtained in Park Y W, Cummings R T, Wu L, et al. Homogeneous Proximity Tyrosine Kinase Assays: Scintillation Proximity Assay versus Homogeneous Time-Resolved Fluorescence. Analytical Biochemistry. 1999; 269: 94-104.

[1] = tested on: THP1 cells (LPS-induced TNF-α); assay: Lipopolysaccharide-activated THP1 cell TNF production assay; conditions: Homo sapiens, THP-1, TNF-α secretion, read-out: THP-1 cell based assay IC50
Protocol: Lipopolysaccharide-Activated THP1 Cell TNF Production Assay
THP1 cells are resuspended in fresh THP1 media (RPMI 1640, 10% heat-inactivated FBS, 1XPGS, 1XNEAA, plus 30 μM βME) at a concentration of 1E6/mL. One hundred microliters of cells per well are plated in a polystyrene 96-well tissue culture. One microgram per mL of bacterial LPS is prepared in THP1 media and is transferred to the wells. Test compounds are dissolved in 100% DMSO and are serially diluted 3-fold in a polypropylene 96-well microtiter plate (drug plate). HI control and LO control wells contain only DMSO. One microliter of test compound from the drug plate followed by 10 μL of LPS are transferred to the cell plate. The treated cells are induced to synthesize and secrete TNF-α at 37° C. for 3 h. Forty microliters of conditioned media are transferred to a 96-well polypropylene plate containing 110 μL of ECL buffer (50 mM Tris-HCl pH 8.0, 100 mM NaCl, 0.05% Tween 20, 0.05% NaN3 and 1% FBS) supplemented with 0.44 nM MAB610 monoclonal Ab (R&D Systems), 0.34 nM ruthenylated AF210NA polyclonal Ab (R&D Systems) and 44 μg/mL sheep anti-mouse M280 Dynabeads (Dynal). After a 2 h incubation at room temperature with shaking, the reaction is read on the ECL M8 Instrument (IGEN Inc.). A low voltage is applied to the ruthenylated TNF-α immune complexes, which in the presence of TPA (the active component in Origlo), results in a cyclical redox reaction generating light at […]. The amount of secreted TNF-α in the presence of compound compared with that in the presence of DMSO vehicle alone (HI control) is calculated using the formula: % control (POC)=(cpd−average LO)/(average HI−average LO)*100. Data (consisting of POC and inhibitor concentration in μM) is fitted to a 4-parameter equation (y=A+((B−A)/(1+((x/C)^D))), where A is the minimum y (POC) value, B is the maximum y (POC), C is the x (cpd concentration) at the point of inflection and D is the slope factor) using a Levenburg-Marquardt non-linear regression algorithm.

Row | Structure (SMILES) | IC50 (IL-1) | IC50 (p38α) | IC50 [1]
1 | Cc1ccc(C(=O)NC(C)C)cc1-c1ccc2c(c1)nnn2C(C)C [Example 4, 4-methyl-N-(1-methylethyl)-3-(1-(1-methylethyl)-1H-1,2,3-benzotriazol-5-yl)benzamide] | 1000 to 5000 nM | < 25 nM | 250 to 1000 nM
2 | Cc1ccc(C(=O)NC2CC2)cc1-c1ccc2c(c1)nnn2C(C)C [Example 5, N-cyclopropyl-4-methyl-3-(1-(1-methylethyl)-1H-benzotriazol-5-yl)benzamide] | 1000 to 5000 nM | < 25 nM | 25 to 100 nM
3 | Cc1c(F)cc(C(=O)NC2CC2)cc1-c1ccc2c(c1)nnn2-c1ccccc1Cl [Example 6, 3-(1-(2-chlorophenyl)-1H-benzotriazol-5-yl)-N-cyclopropyl-5-fluoro-4-methylbenzamide] | 100 to 250 nM | < 25 nM | < 25 nM
4 | Cc1ccc(C(=O)NC2CC2)cc1-c1ccc2c(c1)nnn2-c1ccccc1Cl [Example 7, 3-(1-(2-chlorophenyl)-1H-benzotriazol-5-yl)-N-cyclopropyl-4-methylbenzamide] | 1000 to 5000 nM | < 25 nM | 25 to 100 nM
5 | Cc1cc(F)ccc1-n1nnc2cc(-c3cc(C(=O)NC4CC4)cc(F)c3C)ccc21 [Example 8, N-cyclopropyl-3-fluoro-5-(1-(4-fluoro-2-methylphenyl)-1H-benzotriazol-5-yl)-4-methylbenzamide] | 100 to 250 nM | < 25 nM | < 25 nM
6 | Cc1c(F)cc(C(=O)Nc2ccnn2C)cc1-c1ccc2c(c1)nnn2-c1ccccc1Cl [Example 9, 3-(1-(2-chlorophenyl)-1H-benzotriazol-5-yl)-5-fluoro-4-methyl-N-(1-methyl-1H-pyrazol-5-yl)benzamide] | 25 to 100 nM | < 25 nM | < 25 nM
7 | Cc1c(F)cc(C(=O)NC2CC2)cc1-c1ccc2c(c1)nnn2C(C)(C)C [Example 10, N-cyclopropyl-3-(1-(1,1-dimethylethyl)-1H-benzotriazol-5-yl)-5-fluoro-4-methylbenzamide] | 1000 to 5000 nM | < 25 nM | < 25 nM
8 | Cc1c(F)cc(C(=O)NC2CC2)cc1-c1ccc2c(c1)nnn2C1CCOCC1 [Example 11, N-cyclopropyl-3-fluoro-4-methyl-5-(1-(tetrahydro-2H-pyran-4-yl)-1H-benzotriazol-5-yl)benzamide] | 25 to 100 nM | – | 25 to 100 nM
